Measurements: patent US11401246B2, “Triazole glycolate oxidase inhibitors” (CANTERO THERAPEUTICS, INC., priority 2018, dated 2022)

These molecules were tested against T1, human glycolate oxidase (hGO) (Homo sapiens, UniProt Q9UJM8) (assay: In vitro inhibition of human glycolate oxidase (enzymatic assay, HRP-coupled Trinder reaction)). Conditions: not given.
T1 construct: His-tag (6 histidines, pET-15b) (N); made in house; host or cells: E. coli BL21 (DE3)
T1 sequence (Q9UJM8 1-370): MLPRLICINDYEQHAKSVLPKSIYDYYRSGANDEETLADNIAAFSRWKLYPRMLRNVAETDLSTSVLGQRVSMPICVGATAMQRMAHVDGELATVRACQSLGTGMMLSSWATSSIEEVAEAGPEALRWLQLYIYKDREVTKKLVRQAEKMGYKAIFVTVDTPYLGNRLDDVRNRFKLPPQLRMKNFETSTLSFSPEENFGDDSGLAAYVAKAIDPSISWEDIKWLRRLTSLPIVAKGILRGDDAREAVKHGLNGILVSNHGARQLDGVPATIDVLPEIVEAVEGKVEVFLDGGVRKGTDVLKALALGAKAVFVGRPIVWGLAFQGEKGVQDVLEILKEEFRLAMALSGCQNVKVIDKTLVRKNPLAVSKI
Format: biochemical
Source text: The catalytic reactions used for assaying glycolate oxidase activity in the presence of compounds according to the present disclosure are outlined in FIG. 2. Glycolate oxidase (GO)-catalyzed conversion of glycolate to glyoxylate (top reaction), with the concomitant reduction of the cofactor flavin mononucleotide (FMN), uses molecular oxygen (O2) for recovering its oxidative state, releasing hydrogen peroxide (H2O2). The Trinder reaction (bottom reaction), in which horseradish peroxidase (HRP) uses hydrogen peroxide, 4-aminoantipyrine and a phenol derivative (sulphonated DCIP) to generate a quinoneimine dye that is spectrophotometrically measured.
Human glycolate oxidase (hGO) expression. BL21 (DE3) E. coli transformed with recombinant pET-15b expression vector with the N-terminal His-tag human Hao1 cDNA was grown in LB medium in the presence of 0.1 mg/ml ampicillin. For purification of recombinant human glycolate oxidase (hGO) expressed in BL21 E. coli, bacteria pellets were thawed and re-suspended in 2 ml lysis buffer (50 mM NaH2PO4, 300 mM NaCl, 10 mM imidazole, 50 μM FMN, pH 7.5), and then treated for 30 minutes with 1 mM PMSF for protease inhibition, 0.1% Triton X-100 and 0.2 mg/ml lysozyme to break cellular membranes. After sonication, cells were centrifuged and the supernatant containing the total cellular extract (pre-column fraction) was loaded into a Ni-NTA agarose column and incubated for 30 minutes at 4° C. to allow binding of the 6 histidine tail of recombinant GO protein to the nickel ions. The column was washed with two bed volumes of lysis buffer with 20 mM imidazole to eliminate unbound proteins (wash fraction). GO was eluted using the same buffer with 300 mM imidazole. Fraction containing purified GO was dialyzed against 300 ml of dialysis buffer (50 mM NaH2PO4, 300 mM NaCl, pH 7.5) at 4° C. in agitation overnight, and then kept at 4° C. in darkness. Protein were quantified by the bicinchoninic acid (BCA) assay.
Enzymatic assays. Enzymatic activity of hGO was determined in the presence of glycolate as substrate (40 mM glycolic acid) and phosphate buffer (50 mM KPO4, 0.1 mM EDTA, pH 7). The production of glyoxylate was indirectly measured by the quantification of hydrogen peroxide formed during the first oxidation reaction. […] Enzymatic activity was calculated at 1 minute after initiation of the Trinder reaction.
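For % Inhibition in this document: values are IC50 potency bins despite the % Inhibition label.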

| Compound | IC50 |
| --- | --- |
| O=C(O)c1nn[nH]c1Oc1ccc(Cl)c(F)c1 [Example 8, 5-(4-chloro-3-fluorophenoxy)-1H-1,2,3-triazole-4-carboxylic Acid] | 100 to 200 nM |
| O=C(O)c1nn[nH]c1Sc1ccc(Br)cc1 [Example 52, 5-((4-bromophenyl)thio)-1H-1,2,3-triazole-4-carboxylic Acid] | 100 to 200 nM |
| O=C(O)c1nn[nH]c1Oc1ccc(-c2ccc(Br)cc2)cc1 [Example 10, 5-((4′-bromo-[1,1′-biphenyl]-4-yl)oxy)-1H-1,2,3-triazole-4-carboxylic Acid] | < 100 nM |
| COc1ccc(Oc2[nH]nnc2C(=O)O)cc1 [Example 46, 5-(4-methoxyphenoxy)-1H-1,2,3-triazole-4-carboxylic Acid] | < 100 nM |

Same assay, conditions: recombinant hGO, 40 mM glycolic acid, pH 7, read at 515 nm, 1 minute after initiation of Trinder reaction; read-out: % Inhibition

| Compound | IC50 |
| --- | --- |
| O=C(O)c1nn[nH]c1Oc1ccc(C2CCC(F)(F)C2)cc1 (stereo not shown) [Example 131, 5-(4-(3,3-Difluorocyclopentyl)phenoxy)-1H-1,2,3-triazole-4-carboxylic Acid] | 100 to 200 nM |
| O=C(O)c1nn[nH]c1Oc1ccc(-c2ccc(-c3ccc(OC(F)F)cc3)cc2)cc1 [Example 17, 5-((4″-(difluoromethoxy)-[1,1′:4′,1″-terphenyl]-4-yl)oxy)-1H-1,2,3-triazole-4-carboxylic Acid] | > 200 nM |
| O=C(O)c1nn[nH]c1Oc1ccc(-c2ccnc(F)c2)cc1 [Example 92, 5-(4-(2-fluoropyridin-4-yl)phenoxy)-1H-1,2,3-triazole-4-carboxylic Acid] | < 100 nM |
| Cc1nc(F)ccc1-c1ccc(Oc2[nH]nnc2C(=O)O)cc1 [Example 73, 5-(4-(6-fluoro-2-methylpyridin-3-yl)phenoxy)-1H-1,2,3-triazole-4-carboxylic Acid] | < 100 nM |
| O=C(O)c1nn[nH]c1Oc1ccc(-c2ccc(C3CC3)cc2)cc1 [Example 121, 5-((4′-cyclopropyl-[1,1′-biphenyl]-4-yl)oxy)-1H-1,2,3-triazole-4-carboxylic Acid] | < 100 nM |
| CC1(c2ccc(-c3ccc(Oc4[nH]nnc4C(=O)O)cc3)cc2)CC1 [Example 122, 5-((4′-(1-methylcyclopropyl)-[1,1′-biphenyl]-4-yl)oxy)-1H-1,2,3-triazole-4-carboxylic Acid] | 100 to 200 nM |
| O=C(O)c1nn[nH]c1Oc1ccc(-c2ccccc2OC(F)F)cc1 [Example 28, 5-((2′-(difluoromethoxy)-[1,1′-biphenyl]-4-yl)oxy)-1H-1,2,3-triazole-4-carboxylic Acid] | 100 to 200 nM |
| Cc1ccc(-c2ccc(Oc3[nH]nnc3C(=O)O)cc2C)c(F)n1 [Example 78, 5-(4-(2-fluoro-6-methylpyridin-3-yl)-3-methylphenoxy)-1H-1,2,3-triazole-4-carboxylic Acid] | < 100 nM |
| Cc1cc(Oc2[nH]nnc2C(=O)O)ccc1-c1cnc(F)c(C)c1 [Example 86, 5-(4-(6-fluoro-5-methylpyridin-3-yl)-3-methylphenoxy)-1H-1,2,3-triazole-4-carboxylic Acid] | 100 to 200 nM |
| O=C(O)c1nn[nH]c1Oc1cccc(-c2cccnc2F)c1 [Example 61, 5-(3-(2-fluoropyridin-3-yl)phenoxy)-1H-1,2,3-triazole-4-carboxylic Acid] | < 100 nM |
| O=C(O)c1nn[nH]c1Oc1ccc(-c2ccc(C3CC3(F)F)cc2)cc1 (stereo not shown) [Example 123, 5-((4′-(2,2-difluorocyclopropyl)-[1,1′-biphenyl]-4-yl)oxy)-1H-1,2,3-triazole-4-carboxylic Acid] | 100 to 200 nM |
| O=C(O)c1nn[nH]c1Oc1ccc(-c2ccn[nH]2)cc1 [Example 12, 5-(4-(1H-pyrazol-5-yl)phenoxy)-1H-1,2,3-triazole-4-carboxylic Acid] | < 100 nM |
| O=C(O)c1nn[nH]c1Oc1ccc(Cl)nc1 [Example 49, 5-((6-chloropyridin-3-yl)oxy)-1H-1,2,3-triazole-4-carboxylic Acid] | < 100 nM |
| O=C(O)c1[nH]nnc1Oc1ccc(C2CCC(F)(F)CC2)cc1 [Example 87, 5-(4-(4,4-difluorocyclohexyl)phenoxy)-1H-1,2,3-triazole-4-carboxylic Acid] | 100 to 200 nM |
| CC(C)c1ccc(-c2ccc(Oc3[nH]nnc3C(=O)O)c(F)c2)cc1 [Example 107, 5-((3-fluoro-4′-isopropyl-[1,1′-biphenyl]-4-yl)oxy)-1H-1,2,3-triazole-4-carboxylic Acid] | 100 to 200 nM |
| Cc1ccc(Oc2[nH]nnc2C(=O)O)cc1 [Example 43, 5-(p-tolyloxy)-1H-1,2,3-triazole-4-carboxylic Acid] | 100 to 200 nM |
| CC(C)Cc1ccc(-c2ccc(Oc3[nH]nnc3C(=O)O)cc2)cc1 [Example 108, 5-((4′-isobutyl-[1,1′-biphenyl]-4-yl)oxy)-1H-1,2,3-triazole-4-carboxylic Acid] | > 200 nM |

| Compound | IC50 |
| --- | --- |
| CC(C)(C)c1ccc(-c2ccc(Oc3[nH]nnc3C(=O)O)c(F)c2)cc1 [Example 106, 5-((4′-(tert-butyl)-3-fluoro-[1,1′-biphenyl]-4-yl)oxy)-1H-1,2,3-triazole-4-carboxylic Acid] | 100 to 200 nM |
| Cc1cc(Oc2[nH]nnc2C(=O)O)ccc1-c1cccnc1F [Example 72, 5-(4-(2-fluoropyridin-3-yl)-3-methylphenoxy)-1H-1,2,3-triazole-4-carboxylic Acid] | < 100 nM |
| O=C(O)c1nn[nH]c1Oc1ccccc1Br [Example 5, 5-(2-bromophenoxy)-1H-1,2,3-triazole-4-carboxylic Acid] | > 200 nM |
| COc1ccc(-c2ccc(Oc3[nH]nnc3C(=O)O)cc2)c(OC)n1 [Example 101, 5-(4-(2,6-dimethoxypyridin-3-yl)phenoxy)-1H-1,2,3-triazole-4-carboxylic Acid] | < 100 nM |
| O=C(O)c1nn[nH]c1Oc1ccc(-c2cn[nH]c2)cc1 [Example 11, 5-(4-(1H-pyrazol-4-yl)phenoxy)-1H-1,2,3-triazole-4-carboxylic Acid] | 100 to 200 nM |
| O=C(O)c1nn[nH]c1Oc1cccnc1Br [Example 66, 5-((2-bromopyridin-3-yl)oxy)-1H-1,2,3-triazole-4-carboxylic Acid] | > 200 nM |
| O=C(O)c1nn[nH]c1Oc1ccc(-c2cccc(OC(F)F)c2)cc1 [Example 40, 5-((3′-(difluoromethoxy)-[1,1′-biphenyl]-4-yl)oxy)-1H-1,2,3-triazole-4-carboxylic Acid] | < 100 nM |
| O=C(O)c1nn[nH]c1Oc1ccc(-c2ccsc2)cc1 [Example 23, 5-(4-(thiophen-3-yl)phenoxy)-1H-1,2,3-triazole-4-carboxylic Acid] | < 100 nM |
| O=C(O)c1nn[nH]c1Oc1ccc(Br)cc1 [Example 6, 5-(4-bromophenoxy)-1H-1,2,3-triazole-4-carboxylic Acid] | < 100 nM |
| Cc1cncc(-c2ccc(Oc3[nH]nnc3C(=O)O)cc2)c1 [Example 80, 5-(4-(5-methylpyridin-3-yl)phenoxy)-1H-1,2,3-triazole-4-carboxylic Acid] | < 100 nM |
| Cc1ccc(Oc2[nH]nnc2C(=O)O)c(C)n1 [Example 67, 5-((2,6-dimethylpyridin-3-yl)oxy)-1H-1,2,3-triazole-4-carboxylic Acid] | > 200 nM |
| CC(C)c1ccc(-c2cccc(Oc3[nH]nnc3C(=O)O)c2)cc1 [Example 111, 5-((4′-isopropyl-[1,1′-biphenyl]-3-yl)oxy)-1H-1,2,3-triazole-4-carboxylic Acid] | 100 to 200 nM |
| O=C(O)c1nn[nH]c1Oc1ccc(-c2ccc(-c3ccncc3)cc2)cc1 [Example 15, 5-((4′-(pyridin-4-yl)-[1,1′-biphenyl]-4-yl)oxy)-1H-1,2,3-triazole-4-carboxylic Acid] | < 100 nM |
| Cc1cc(Oc2[nH]nnc2C(=O)O)ccc1-c1ccc(F)nc1C [Example 85, 5-(4-(6-fluoro-2-methylpyridin-3-yl)-3-methylphenoxy)-1H-1,2,3-triazole-4-carboxylic Acid] | 100 to 200 nM |
| Cc1c(-c2ccc(Oc3[nH]nnc3C(=O)O)cc2)ccnc1F [Example 75, 5-(4-(2-fluoro-3-methylpyridin-4-yl)phenoxy)-1H-1,2,3-triazole-4-carboxylic Acid] | < 100 nM |
| COc1ccc(Oc2[nH]nnc2C(=O)O)cn1 [Example 70, 5-((6-methoxypyridin-3-yl)oxy)-1H-1,2,3-triazole-4-carboxylic Acid] | > 200 nM |
